Results taken from patent EP0280873A1, “Piperidines, medicines containing them and process for their preparation” (Dr. Karl Thomae GmbH, priority 1987, dated 1988).
Counter-ions that a name gives are not always drawn. Like-named read-outs stand apart in the source and are kept apart here.

Key:
Dopamin (D₂)-Rezeptor = target: T1, Dopamin (D₂)-Rezeptor (Rattus norvegicus, UniProt P61169); experiment: Dopamine (D2) receptor binding affinity, 3H-spiroperidol displacement in rat striatal homogenate; parameters: species or system Ratten
T1 construct: Die Striata werden herauspräpariert und in 25 ml eiskaltem Puffer; from tissue; host or cells: rat striatum membrane homogenate
T1 sequence (P61169 whole entry): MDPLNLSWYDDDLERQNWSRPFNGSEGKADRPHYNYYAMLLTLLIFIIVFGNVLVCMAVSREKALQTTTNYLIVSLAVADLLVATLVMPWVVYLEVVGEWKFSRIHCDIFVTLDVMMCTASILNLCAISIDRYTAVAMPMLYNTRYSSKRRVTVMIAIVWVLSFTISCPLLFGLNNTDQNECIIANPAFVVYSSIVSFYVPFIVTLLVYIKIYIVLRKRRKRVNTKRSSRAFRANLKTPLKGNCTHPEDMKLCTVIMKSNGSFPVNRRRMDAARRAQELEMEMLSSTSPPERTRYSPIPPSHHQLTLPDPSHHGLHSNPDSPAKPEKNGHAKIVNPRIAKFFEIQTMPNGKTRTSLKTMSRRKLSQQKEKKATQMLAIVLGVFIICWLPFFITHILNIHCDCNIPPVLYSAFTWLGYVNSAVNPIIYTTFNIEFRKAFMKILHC
Experimental: 1.) Bestimmung der Dopamin (D₂)-Rezeptorbindungsaffinitäten nach der modifizierten Methode von D.J. de Vries und P.M. Beart (Europ. J. Pharmacology 109, 417-419 (1985)):
Ratten werden durch Schlag betäubt, dekapitiert und das Ge hirn entnommen. Die Striata werden herauspräpariert und in 25 ml eiskaltem Puffer (50 mM TRIS-HCl, 1 mM EDTA, 5 mM MgCl₂, 1mM Ascorbinsäure, pH=7,20) homogenisiert. Das Homogenat wird 15 Minuten bei 0°C und 50000 × g zentrifugiert. Der Überstand wird verworfen. Das Pellet wird durch Resuspension und erneute Zentrifugation zweimal gewaschen und anschließend bei 37°C eine halbe Stunde vorinkubiert. Das Inkubat wird wie zuvor beschrieben zentrifugiert und der Überstand verworfen. Das Pellet wird in 60 ml Puffer resuspen diert, homogenisiert und dann mit Puffer 1:500 bezogen auf das Striatagewicht verdünnt.
Für den Inkubationsansatz werden 10 µl ³H-Spiroperidol-Lö-sung ([…]; Endkonzentration: 2,5 × 10⁻¹⁰ M), 970 µl Puffer sowie 20 µl Testsubstanzlösung (Endkonzentration: 10⁻¹¹-10⁻⁴ M) vorgelegt. Die unspezifische Bindung wird in Gegenwart von 1 µM Haloperidol bestimmt. Durch Zugabe von 1 ml Homogenatlösung zu dieser Vorlage wird der Assay gestartet. Die Inkubationszeit beträgt 60 Minuten bei Raumtemperatur. Nach Ablauf dieser Zeit wird das Inkubat über ein GF/B-Filter abgesaugt und mit 15 ml eiskaltem Puffer gewaschen. Das feuchte Filter wird mit Instagel® versetzt und über Nacht extrahiert. Anschließend wird die verbliebene Radioaktivität in einem Packard CA 2000 Szintillationscounter bei einer Zählausbeute von 50-55 % gezählt.
Mit Hilfe eines 2-Bindungsstellen-Iterationsprogrammes werden die IC₅₀-Werte ermittelt und daraus die Ki-Werte berechnet.

Dopamin-Autorezeptoren = experiment: Inhibition of dopamine turnover (AMPT-induced fall of whole-brain dopamine) in mice; assay type: in vivo, Mäusen; conditions: 5 mg/kg s.c., AMPT 250 mg/kg i.p. at 15 min, whole brain dopamine at 4 h 15 min
Experimental: 2. Bestimmung der Dopaminturnoverhemmung:
Die Dopaminturnoverhemmung wurde an Mäusen gemessen. Bei Tieren, die mit α-Methyl-p-tyrosin (AMPT) (250 mg/kg i.p.) zum Zeitpunkt 15 Minuten des Experimentes behandelt werden, fällt die Dopaminkonzentration im Gesamthirn mit fortschreitender Versuchsdauer ab. Durch Substanzen, die an Dopamin-Autorezeptoren wirken, kann der Dopaminabfall (im Vergleich zu mit Kochsalzlösung behandelten Kontrolltieren) verhindert werden. Testsubstanzen werden zum Zeitpunkt 0 des Experiments subkutan appliziert (5 mg/kg s.c.). Zum Zeitpunkt 4 Stunden und 15 Minuten des Experiments werden die Tiere getötet und die Gehirne der Dopaminbestimmung mittels Hochdruckflüssigkeitschromatographie mit elektrochemischer Detektion zugeführt. Bestimmt wird die durch die Testsubstanz bewirkte prozentuale Hemmung des durch AMPT induzierten Dopaminabfalls: […]

[1] = test system: mit Reserpin behandelten Maus; experiment: Anti-Parkinson effect: induction of motility in mice treated with reserpine 24 h earlier; assay type: in vivo; conditions: 2 mg/kg s.c., measured 20 min later, group of 6 mice, x ± sx; saline controls ca. 5
Experimental: 3. Bestimmung der Anti-Parkinson-Wirkung nach der Methode von Hinzen D. et al., European Journal of Pharmacology 131, 75-88 (1986):
a) Motilitätsauslösung an der 24 Stunden zuvor mit Reserpin behandelten Maus:
Mäuse werden 24 Stunden vor dem Experiment mit 5 mg/kg Reserpin i.p. behandelt; die Tiere werden bei 25-30°C gehalten und 3 × mit 2 ml einer 5%igen Glucose-lösung in Tyrode s.c. behandelt. Gruppen zu je 6 Tieren erhalten die Testsubstanz mit 2 mg/kg s.c. injiziert. 20 Minuten später werden die Tiere zur Aktivitätsmessung in Beobachtungskäfige gesetzt, die mit einer Infrarotlichtschranke ausgerüstet sind. Meß-wert ist die Häufigkeit des Passierens des Infrarotstrahles durch eine Gruppe von 6 Mäusen in 5 Minuten ("Laufimpulse/5 Minuten").
Pro Substanz werden 6 Gruppen geprüft. Kontrolltiere erhalten isotone Kochsalzlösung s.c..
Als Ergebnis werden die mit der Testsubstanz erzielten Laufimpulse/5 Minuten dargestellt (x ± sx) Kontrolltiere (Kochsalzlösung) zeigen minimale Aktivität (ca. 5 Laufimpulse/5 Minuten).

MPTP-Affen = experiment: Anti-Parkinson effect: abolition of Parkinson symptoms in the MPTP monkey; assay type: in vivo, Rhesusaffen; conditions: for Dauer (Wirkungsdauer): at the minimal dose; for minimal effective dose: Macaca mulatta, im, read-out: Dosis (Mindestdosen, die zur Aufhebung der Parkinsonsymptomatik führen)
Text: b) Aufhebung der Parkinsonsymptome am MPTP-Affen nach der modifizierten Methode von Burns, R.S. und Chuang, C.: Proc. Natl. Acad. Sci. 80, 4546-4550 (1983):
Das durch das Neurotoxin 1-Methyl-4-phenyl-1,2,3,6-tetrahydro-pyridin (MPTP) beim Menschen und beim Affen ausgelöste, irreversible neurologische Krankheitsbild ähnelt in seiner klinischen, pathologischen, biochemischen und pharmakologischen Ausprägung weitgehend der idiopathischen Parkinson'schen Erkrankung (Markey et al., Nature 311, 464 (1984)). Ursache dieser überzeugenden Übereinstimmung ist die Tatsache, daß MPTP selektiv jene dopaminergen Nervenzellen in der Substantia nigra des Gehirns zerstört, welche auch bei der natürlich auftretenden Parkinson'schen Erkrankung durch degenerative Prozesse zerstört werden. Es wird diskutiert, daß auch die Ursache der idiopathischen Parkinson'schen Erkrankung im Organismus entstehendes MPTP oder eine ähnliche chemische Verbindung ist (Snyder, S.H., Nature 311, 514 (1984)). Möglicherweise bedingt durch den spezifischen Metabolismus des MPTP ist die klinische Ausprägung des MPTP-Parkinson'bildes bisher außer beim Menschen nur beim Affen nachweisbar.
Das an Rhesusaffen verwirklichte MPTP-Modell ist daher in hervorragendem Maße geeignet, die Wirkung von Anti-Parkinson-Medikamenten zu prüfen. Insgesamt 7 Rhesusaffen waren an dem Versuch beteiligt. Sie hatten über mehrere Tage verteilt, kumulative Dosen von 2,4-6,25 mg/kg MPTP erhalten, bis stabile und irreversible Parkinson-Symptome aufgetreten waren. Im Vordergrund der Symptomatik stand die Bradykinesie, die alle Tiere zeigten, teilweise sogar bis hin zur Akinesie. Kein Tier war in der Lage, spontan Wasser oder Futter aufzunehmen. Die Reaktivität war stark vermindert, meist verharrten die Tiere in einer typischen Beugehaltung. Tremor wurde gelegentlich gesehen. Die Extremitäten wiesen einen Rigor auf. Bei dem Versuch einer Willkür-Motorik traten häufig klonische Krämpfe auf.
Die nachfolgenden Verbindungen wurden jeweils an 2-3 der so vorbehandelten Tiere getestet. Bei intramuskulärer Gabe wurden nach etwa 5 bis 10 Minuten erste koordinierte Willkürbewegungen möglich, die in den folgenden 10 bis 30 Minuten von einer allmählichen, weitestgehenden Normalisierung der Motorik gefolgt waren. Die Tiere waren in der Lage, Nahrung aufzunehmen. Sie verhielten sich innerhalb ihrer Käfige regelgerecht, dies galt auch hinsichtlich Vigilanz und artspezifischen Verhaltens. Als Restsymptomatik wurde gelegentlich leichter Ruhetremor registriert.
Sobald die Wirkung der Verbindungen nachließ, verfielen die Tiere wieder in die oben beschriebene Parkinson-Symptomatik; eine erneute Applikation der Verbindungen führte wieder zur Besserung bzw. weitgehenden Aufhebung der klinischen Erscheinungen.
Nebenwirkungen traten in den bisher angewandten Dosierungen nicht in Erscheinung.
In der nachfolgenden Tabelle werden sowohl die Mindestdosen, die zur Aufhebung der Parkinsonsymptomatik führen, angegeben, als auch die Wirkungsdauer.

Mäusen = experiment: Toxicity in mice, oral dosing; assay type: in vivo; conditions: doses up to 500 mg/kg p.o.
Text: Ferner sind die erfindungsgemäß hergestellten Verbindungen weitgehend untoxisch. So konnten z.

[2] = MPTP-treated rhesus monkeys, i.m.
[3] = rat striata, 3H-Spiroperidol 2,5 × 10⁻¹⁰ M, 60 min at room temperature, Ki calculated from IC50, read-out: Ki

Row | Ki (Dopamin (D₂)-Rezeptor; [3]) | Structure (SMILES) | Ki (Dopamin (D₂)-Rezeptor) | Hemmung des Dopaminabfalls (Dopamin-Autorezeptoren) | Zahl der Laufimpulse/5 min [1] | Dauer (Wirkungsdauer) (MPTP-Affen; [2]) | minimal effective dose (MPTP-Affen) | minimal effective dose (MPTP-Affen; MPTP-treated rhesus monkeys, 2-3 animals per compound, i.m.) | Todesfälle (Mäusen)
1 |  | CCCN1CCC(c2csc(N)n2)CC1 [Substanz F, 2-Amino-4-(1-propyl-piperidin-4-yl)thiazol] | 38 nM | 59% | 65 ± 17 Laufimpulse/5 min | 2-3 Std. | 0.2 mg/kg |  | 
2 | 3 nM | Nc1nc(C2=CCCNC2)cs1 [Substanz E, 2-Amino-4-(1,2,3,6-tetrahydro-pyridin-5-yl)thiazol-dihydrochlorid] |  |  |  |  |  |  | 
3 | 36 nM | CCCN1CCC=C(c2csc(N)n2)C1 [Substanz A, 2-Amino-4-(1-propyl-1,2,3,6-tetrahydro-pyridin-5-yl)-thiazol] |  | 35% | 44 ± 4 Laufimpulse/5 min |  |  |  | 
4 |  | C=CCN1CC=C(c2csc(N)n2)CC1 [Substanz C, 2-Amino-4-(1-allyl-1,2,3,6-tetrahydro-pyridin-4-yl)-thiazol] | 22 nM | 47% | 32 ± 7 Laufimpulse/5 min | 2-4 Std. | 0.35 mg/kg |  | keine Todesfälle
5 |  | CCCN1CC=C(c2csc(N)n2)CC1 [Substanz D, 2-Amino-4-(1-propyl-1,2,3,6-tetrahydro-pyridin-4-yl)-thiazol] | 6 nM | 80% | 80 ± 10 Laufimpulse/5 min | 2-3 Std. | 0.03 mg/kg |  | 

Row | Structure (SMILES) | Ki (Dopamin (D₂)-Rezeptor; [3]) | Ki (Dopamin (D₂)-Rezeptor) | Hemmung des Dopaminabfalls (Dopamin-Autorezeptoren) | Zahl der Laufimpulse/5 min [1] | Dauer (Wirkungsdauer) (MPTP-Affen; [2]) | minimal effective dose (MPTP-Affen) | minimal effective dose (MPTP-Affen; MPTP-treated rhesus monkeys, 2-3 animals per compound, i.m.) | Todesfälle (Mäusen)
6 | C=CCN1CCC=C(c2csc(N)n2)C1 [Substanz B, 2-Amino-4-(1-allyl-1,2,3,6-tetrahydro-pyridin-5-yl)-thiazol] | 8 nM |  |  | 52 ± 9 Laufimpulse/5 min | 2-5 Std. |  | 0.05 mg/kg | 
